Results taken from patent EP3807241B1, “IMPROVEMENTS IN OR RELATING TO ORGANIC COMPOUNDS” (Givaudan SA, priority 2018, dated 2019).
Like-named read-outs stand apart in the source and are kept apart here.

Key:
[1] = system: plated rat hepatocytes; assay type: in vitro ADME
Experimental: Short-term monolayer cultures of cryopreserved primary hepatocytes from rat were prepared in collagen coated 48-well plates to perform metabolic assays in a kinetic manner for up to 22 h.
Palatable primary male rat hepatocytes (Sprague-Dawley, Grade P pooled cryopreserved hepatocytes, for plated assays) and supplements were purchased from Biopredic International (Saint Grégoire, France). WEM (with Phenol Red, with GlutaMAX™, without HEPES) was purchased from Gibco™ (ThermoFisherScientific).
Cells were thawed following the supplier's protocol and seeded at a density of 450,000 cells/mL in 0.25 mL seeding medium (WEM supplemented with fetal bovine serum, Dexamethasone, penicillin-streptomycin, insulin, GlutaMAX™ and HEPES) using 48-well plates which were coated with collagen (Collagen I Rat Protein, Tail; Gibco™, ThermoFisherScientific) and incubated for 4-5 h to facilitate attachment. Then, the medium was changed to culturing medium (WEM supplemented with penicillin, streptomycin, insulin, hydrocortisone without serum) to prevent detachment of cells.
Test chemicals were dissolved in methanol (80-90% methanol) and directly added with the culture medium (0.8-0.9% final methanol concentration). For structure-activity studies, final concentration of test chemicals was 50 µM or 5 µM. Cells were incubated for 0.5-22 h in the presence of test chemicals. To stop the reactions, the culture medium was removed and 0.5 M citric acid (pH 2.0; 60 µL) and cold acetonitrile (60 µL) containing 2 µM decanoyl CoA as internal standard were added to each well. The attached cells were removed and disrupted by scraping the well with a pipette tip and by pipetting up and down several times, transferred in 1.5 mL tubes and frozen at -80°C. The cell lysates were defrozen, centrifuged (21,000 x g, 5 min, RT), and the supernatant was diluted with 1.36 mL Tris-buffer (4 mM) containing KCI (6 mM), MgCl2 (0.3 mM) and n-heptadecanoyl CoA as internal standard (0.2 µM). Samples were neutralized by addition of NaOH (42 µL of 1 M NaOH) and loaded onto solid phase extraction cartridges (OASIS HLB µEIution plate, Waters). Columns were washed with 200 µL of ammonium solution (1 M), and samples eluted sequentially with 50 µL acetonitrile and 50 µL water.
CoA conjugates were analyzed with high resolution LC-MS (LC-HRMS) on a Dionex UltiMate 3000 RS HPLC system coupled to a Q-Exactive orbitrap mass spectrometer (Thermo Scientific, Reinach, Switzerland) with electrospray ionization (ESI) in both positive and negative ionization mode. For liquid chromatography separation an Agilent Zorbax 300Extend-C18 column with dimensions 2.1 mm x 50 mm and particle size of 3.5 µm with a 2.1 mm x 10 mm pre-column of the same material was used. The flow rate was 0.4 mL/min. Eluent A consists of water containing 0.0025% ammonia (pH around 9.8) and eluent B consists of acetonitrile containing 0.0025% ammonia. A linear gradient was run from 95% eluent A (hold for 1 min) to 100% eluent B within 6 min (hold for 1 min), back to 95% eluent A within 0.5 min followed by 1.5 min equilibration time. The injection volume of the sample was 10 µl. The mass resolution of the HR-MS spectra was set to 70,000. The mass accuracy was <5ppm. […] Ion source parameters adjusted were as follows: sheath gas flow (30 arbitrary unit), auxiliary gas flow (10 arbitrary unit), capillary temperature (270°C), and source voltage (4kV in positive mode, -3kV in negative mode). Fragmentation was obtained from dissociation in an octopole collision cell using higher energy collision dissociation settings at 35 and 45 (arbitrary unit). The mass scan range was set from 120 to 1800 m/z.
Calibration standards were prepared with CoA, acetyl-CoA, benzoyl-CoA, TBBA-CoA, and octanoyl-CoA to determine the concentrations of CoA conjugates. Decanoyl-CoA and heptadecanoyl-CoA were used as internal standards. The limit of detection with this method is 0.005 µM for CoA conjugates. […]

[2] = system: reproductive organs of male rats; conditions: rat, in vivo; cited from earlier work
[3] = system: primates; conditions: cited from earlier work
[4] = system: reproductive organs of male dogs; conditions: dog, in vivo; cited from earlier work
[5] = system: guinea-pigs; conditions: guinea pig, in vivo; cited from earlier work
[6] = system: mice; conditions: mouse, in vivo; cited from earlier work
[7] = system: primary rat hepatocytes; conditions: TBBA treatment; cited from earlier work
[8] = GC odor threshold
[9] = male, Sprague-Dawley, rat, 0.5 h, 50 µM
[10] = male, Sprague-Dawley, rat, 4 h, 50 µM
[11] = male, Sprague-Dawley, rat, 22 h, 50 µM

CC(C)C1CC=C(CCC=O)CC1 (stereo not drawn) [3-(4-isopropylcyclohex-1-en-1-yl)propanal]
accumulation of CoA-conjugates (in words) [1]: substantial accumulation | CoA Conjugates Detected in Plated Rat Hepatocytes (Total Amount) [1, 9]: 124 % of TBBA-CoA ex BMHCA | CoA conjugate detected: 3-(4-isopropylcyclohex-1-en-1-yl)propanoic acid-CoA [1, 9]: 53 % of TBBA-CoA ex BMHCA | CoA conjugate detected: 3-(4-isopropylcyclohexa-1 ,5-dien-1-yl)propanoic acid-CoA [1, 9]: 36 % of TBBA-CoA ex BMHCA | CoA conjugate detected: 4-isopropylcyclohex-1-ene-1-carboxylic acid-CoA [1, 9]: 23 % of TBBA-CoA ex BMHCA | CoA conjugate detected: 4-isopropylcyclohexane-1-carboxylic acid-CoA [1, 9]: 12 % of TBBA-CoA ex BMHCA | CoA Conjugates Detected in Plated Rat Hepatocytes (Total Amount) [1, 10]: 79 % of TBBA-CoA ex BMHCA | CoA conjugate detected: 3-(4-isopropylcyclohex-1-en-1-yl)propanoic acid-CoA [1, 10]: 26 % of TBBA-CoA ex BMHCA | CoA conjugate detected: 3-(4-isopropylcyclohexa-1 ,5-dien-1-yl)propanoic acid-CoA [1, 10]: 17 % of TBBA-CoA ex BMHCA | CoA conjugate detected: 4-isopropylcyclohex-1-ene-1-carboxylic acid-CoA [1, 10]: 26 % of TBBA-CoA ex BMHCA | CoA conjugate detected: 4-isopropylcyclohexane-1-carboxylic acid-CoA [1, 10]: 10 % of TBBA-CoA ex BMHCA | CoA Conjugates Detected in Plated Rat Hepatocytes (Total Amount) [1, 11]: 31 % of TBBA-CoA ex BMHCA | CoA conjugate detected: 4-isopropylcyclohex-1-ene-1-carboxylic acid-CoA [1, 11]: 24 % of TBBA-CoA ex BMHCA | CoA conjugate detected: 4-isopropylcyclohexane-1-carboxylic acid-CoA [1, 11]: 7 % of TBBA-CoA ex BMHCA

CC(C)CC1=CCC(CCC=O)CC1 (stereo not drawn) [3-(4-isobutylcyclohex-3-en-1-yl)propanal]
main conjugate detected ([1]; male, Sprague-Dawley, rat, 50 µM): 4-isobutylbenzoic acid-CoA | CoA Conjugates Detected in Plated Rat Hepatocytes (Total Amount) [1, 9]: 74 % of TBBA-CoA ex BMHCA | CoA conjugate detected: 3-(4-isobutylcyclohex-3-en-1-yl)propanoic acid-CoA [1, 9]: 19 % of TBBA-CoA ex BMHCA | CoA conjugate detected: 3-(4-isobutylcyclohexa-1,3-dien-1-yl)propanoic acid-CoA [1, 9]: 12 % of TBBA-CoA ex BMHCA | CoA conjugate detected: 4-isobutylcyclohex-3-ene-1-carboxylic acid-CoA [1, 9]: 23 % of TBBA-CoA ex BMHCA | CoA conjugate detected: 4-isobutylcyclohexa-1,3-diene-1-carboxylic acid-CoA [1, 9]: 8 % of TBBA-CoA ex BMHCA | CoA Conjugates Detected in Plated Rat Hepatocytes (Total Amount) [1, 10]: 45 % of TBBA-CoA ex BMHCA | CoA conjugate detected: 3-(4-isobutylcyclohex-3-en-1-yl)propanoic acid-CoA [1, 10]: 2 % of TBBA-CoA ex BMHCA | CoA conjugate detected: 3-(4-isobutylcyclohexa-1,3-dien-1-yl)propanoic acid-CoA [1, 10]: 2 % of TBBA-CoA ex BMHCA | CoA conjugate detected: 4-isobutylcyclohex-3-ene-1-carboxylic acid-CoA [1, 10]: 10 % of TBBA-CoA ex BMHCA | CoA conjugate detected: 4-isobutylcyclohexa-1,3-diene-1-carboxylic acid-CoA [1, 10]: 8 % of TBBA-CoA ex BMHCA | CoA Conjugates Detected in Plated Rat Hepatocytes (Total Amount) [1, 11]: 29 % of TBBA-CoA ex BMHCA | CoA conjugate detected: 3-(4-isobutylcyclohex-3-en-1-yl)propanoic acid-CoA [1, 11]: 3 % of TBBA-CoA ex BMHCA | CoA conjugate detected: 4-isobutylcyclohex-3-ene-1-carboxylic acid-CoA [1, 11]: 5 % of TBBA-CoA ex BMHCA

CC(C=O)Cc1ccc(C(C)(C)C)cc1 (stereo not drawn) [BMHCA, 3-(4-tert-butylphenyl)-2-methylpropanal]
toxic effects on the reproductive organs [2]: toxic effects | toxic effects [3]: No effects | toxic effects on the reproductive organs [4]: toxic effects | toxic effects [5]: No effects | toxic effects [6]: No effects | CoA Conjugates Detected in Plated Rat Hepatocytes (Total Amount) [1, 9]: 100 % of TBBA-CoA ex BMHCA | CoA Conjugates Detected in Plated Rat Hepatocytes (Total Amount) [1, 10]: 100 % of TBBA-CoA ex BMHCA | CoA Conjugates Detected in Plated Rat Hepatocytes (Total Amount) [1, 11]: 100 % of TBBA-CoA ex BMHCA

CC(C)(C)c1ccc(C(=O)O)cc1 [TBBA, 4-(tert-butyl)benzoic acid]
CoA, acetyl-CoA and citrate levels [7]: decreased | p-tert-butyl-benzoyl-CoA accumulates to stable levels within ([1]; male, Sprague-Dawley, rat): 0.5 to 4 h

CC1=C(CCC=O)CCC(C(C)C)C1 (stereo not drawn) [3-(4-isopropyl-2-methylcyclo-hex-1-en-1-yl)propanal]
GC Odor Threshold [8]: 0.022 ng/L | accumulation of CoA-conjugates (in words) [1]: significantly reduced accumulation | CoA Conjugates Detected in Plated Rat Hepatocytes (Total Amount) [1, 9]: 62 % of TBBA-CoA ex BMHCA | CoA conjugate detected: 3-(4-isopropyl-2-methylcyclohex-1-en-1-yl)propanoic acid-CoA [1, 9]: 22 % of TBBA-CoA ex BMHCA | CoA conjugate detected: 3-(4-isopropyl-2-methylcyclohexa-1,5-dien-1-yl)propanoic acid-CoA [1, 9]: 34 % of TBBA-CoA ex BMHCA | CoA conjugate detected: 3-(4-isopropyl-2-methylphenyl)propanoic acid-CoA [1, 9]: 2 % of TBBA-CoA ex BMHCA | CoA conjugate detected: 4-isopropyl-2-methylcyclohex-1-ene-1-carboxylic acid-CoA [1, 9]: 4 % of TBBA-CoA ex BMHCA | CoA Conjugates Detected in Plated Rat Hepatocytes (Total Amount) [1, 10]: 28 % of TBBA-CoA ex BMHCA | CoA conjugate detected: 3-(4-isopropyl-2-methylcyclohex-1-en-1-yl)propanoic acid-CoA [1, 10]: 10 % of TBBA-CoA ex BMHCA | CoA conjugate detected: 3-(4-isopropyl-2-methylcyclohexa-1,5-dien-1-yl)propanoic acid-CoA [1, 10]: 13 % of TBBA-CoA ex BMHCA | CoA conjugate detected: 3-(4-isopropyl-2-methylphenyl)propanoic acid-CoA [1, 10]: 2 % of TBBA-CoA ex BMHCA | CoA conjugate detected: 4-isopropyl-2-methylcyclohex-1-ene-1-carboxylic acid-CoA [1, 10]: 3 % of TBBA-CoA ex BMHCA | CoA Conjugates Detected in Plated Rat Hepatocytes (Total Amount) [1, 11]: 9 % of TBBA-CoA ex BMHCA | CoA conjugate detected: 3-(4-isopropyl-2-methylcyclohex-1-en-1-yl)propanoic acid-CoA [1, 11]: 3 % of TBBA-CoA ex BMHCA | CoA conjugate detected: 3-(4-isopropyl-2-methylcyclohexa-1,5-dien-1-yl)propanoic acid-CoA [1, 11]: 3 % of TBBA-CoA ex BMHCA | CoA conjugate detected: 4-isopropyl-2-methylcyclohex-1-ene-1-carboxylic acid-CoA [1, 11]: 3 % of TBBA-CoA ex BMHCA

CC(C)CC1=CCC(CCC=O)C(C)C1 (stereo not drawn) [3-(4-isobutyl-6-methylcyclohex-3-en-1-yl)propanal]
CoA Conjugates Detected in Plated Rat Hepatocytes (Total Amount) [1, 9]: 86 % of TBBA-CoA ex BMHCA | CoA conjugate detected: 3-(4-isobutyl-2-methylcyclohexyl)propanoic acid-CoA [1, 9]: 3 % of TBBA-CoA ex BMHCA | CoA conjugate detected: 3-(4-isobutyl-6-methylcyclohex-3-en-1-yl)propanoic acid [1, 9]: 58 % of TBBA-CoA ex BMHCA | CoA conjugate detected: 3-(4-isobutyl-6-methylcyclohexa-1,3-dien-1-yl)propanoic acid-CoA [1, 9]: 21 % of TBBA-CoA ex BMHCA | CoA conjugate detected: 4-isobutyl-6-methylcyclohex-3-ene-1-carboxylic acid-CoA [1, 9]: 4 % of TBBA-CoA ex BMHCA | CoA Conjugates Detected in Plated Rat Hepatocytes (Total Amount) [1, 10]: 31 % of TBBA-CoA ex BMHCA | CoA conjugate detected: 3-(4-isobutyl-6-methylcyclohex-3-en-1-yl)propanoic acid [1, 10]: 19 % of TBBA-CoA ex BMHCA | CoA conjugate detected: 3-(4-isobutyl-6-methylcyclohexa-1,3-dien-1-yl)propanoic acid-CoA [1, 10]: 8 % of TBBA-CoA ex BMHCA | CoA conjugate detected: 4-isobutyl-6-methylcyclohex-3-ene-1-carboxylic acid-CoA [1, 10]: 4 % of TBBA-CoA ex BMHCA
